28 compounds from patent US10214531B2 (Institute for Drug Discovery, LLC, priority 2013, dated 2019) can be followed below.

Where a name gives a salt, the structure may show the parent alone.

recombinant human AMCase, sequence (Q9BZP6 22-476): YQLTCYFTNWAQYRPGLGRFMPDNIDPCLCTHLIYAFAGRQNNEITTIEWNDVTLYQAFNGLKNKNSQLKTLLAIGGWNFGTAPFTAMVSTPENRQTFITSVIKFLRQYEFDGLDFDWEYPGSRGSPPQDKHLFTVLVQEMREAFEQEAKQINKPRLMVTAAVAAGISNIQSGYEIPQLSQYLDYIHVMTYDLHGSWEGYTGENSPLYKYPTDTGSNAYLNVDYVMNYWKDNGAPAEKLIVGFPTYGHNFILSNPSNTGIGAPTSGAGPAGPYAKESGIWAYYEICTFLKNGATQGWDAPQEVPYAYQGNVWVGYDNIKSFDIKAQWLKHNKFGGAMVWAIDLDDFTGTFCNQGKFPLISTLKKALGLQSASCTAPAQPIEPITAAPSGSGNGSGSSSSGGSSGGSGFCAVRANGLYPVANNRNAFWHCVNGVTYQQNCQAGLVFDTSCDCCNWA

The target of this assay is recombinant human AMCase (Homo sapiens, UniProt Q9BZP6). Description: Human AMCase Activity Assay. The format is biochemical. To be noted: recombinant hAMCase, 4-methylumbelliferyl chitobioside substrate, citrate buffer pH 5.2, 37° C., 60 minutes; read-out: Activity (IC50 value key). The procedure, abridged:
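Recombinant human enzyme with fluorogenic 4-methylumbelliferyl β-D-N,N′-diacetylchitobioside substrate in citrate buffer, pH 5.2, 60 min at 37 °C in the dark with shaking. Read-out is 4MU fluorescence at 460 nm.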
Broadly, the IC50 is the midpoint of a concentration-inhibition curve. Turning to `Cc1ccccc1C(=O)NCC1CCN(c2nc(N)n[nH]2)CC1` [Example 212, N-((1-(3-amino-1H-1,2,4-triazol-5-yl)piperidin-4-yl)methyl)-2-methylbenzamide], the IC50 was above 100 µM.
The result for `Nc1n[nH]c(N2CCC(CNC(=O)c3ccc(F)cc3F)CC2)n1` [Example 213, N-((1-(3-amino-1H-1,2,4-triazol-5-yl)piperidin-4-yl)methyl)-2,4-difluorobenzamide] reads above 100 µM; that for `Nc1n[nH]c(N2CCN(C(=O)CC(N)c3ccccc3F)CC2)n1` (stereo not shown) [Example 214, 3-amino-1-(4-(3-amino-1H-1,2,4-triazol-5-yl)piperazin-1-yl)-3-(2-fluorophenyl)propan-1-one dihydrochloride], above 100 µM; that for `Nc1n[nH]c(N2CCN(C(=O)CC(N)c3ccc(F)cc3)CC2)n1` (stereo not shown) [Example 215, 3-amino-1-(4-(3-amino-1H-1,2,4-triazol-5-yl)piperazin-1-yl)-3-(4-fluorophenyl)propan-1-one dihydrochloride], above 100 µM.
The result for `CCC(CN1CCN(c2nc(N)n[nH]2)CC1)Oc1ccc(Cl)cc1` (stereo not shown) [Example 216, 5-(4-(2-(4-chlorophenoxy)butyl)piperazin-1-yl)-1H-1,2,4-triazol-3-aminedihydrochloride] reads 1 to 10 µM; that for `Nc1n[nH]c(N2CCC(NC(=O)Nc3cc(Cl)c(Cl)cc3Cl)CC2)n1` [Example 217, 1-(1-(3-amino-1H-1,2,4-triazol-5-yl)piperidin-4-yl)-3-(2,4,5-trichlorophenyl)urea], above 100 µM; that for `Nc1n[nH]c(N2CCC(CNC(=O)Nc3cccc(Cl)c3)CC2)n1` [Example 218], above 100 µM.
On to `Nc1n[nH]c(N2CCC(CNC(=O)c3ccc(F)c(F)c3)CC2)n1` [Example 220, N-((1-(3-amino-1H-1,2,4-triazol-5-yl)piperidin-4-yl)methyl)-3,4-difluorobenzamide], for which the IC50 was above 100 µM.
The same measure for `Nc1n[nH]c(N2CCN(C(=O)[C@@H](O)Cc3ccc(Cl)cc3)CC2)n1` [Example 221, (S)-1-(4-(3-amino-1H-1,2,4-triazol-5-yl)piperazin-1-yl)-3-(4-chlorophenyl)-2-hydroxypropan-1-one]: 10 to 100 µM; for `CC(=O)NC(CC(=O)N1CCN(c2nc(N)n[nH]2)CC1)c1cccc(F)c1` (stereo not shown) [Example 222, N-(3-(4-(3-amino-1H-1,2,4-triazol-5-yl)piperazin-1-yl)-1-(3-fluorophenyl)-3-oxopropyl)acetamide]: above 100 µM.
As to `Nc1n[nH]c(N2CCN(CCCc3ccc(C(F)(F)F)cc3)C(CCCO)C2)n1` (stereo not shown) [Example 223, 3-(4-(3-amino-1H-1,2,4-triazol-5-yl)-1-(3-(4-(trifluoromethyl)phenyl)propyl)piperazin-2-yl)propan-1-ol], the IC50 fell in the range of 1 to 10 µM.
The same measure for `CC(=O)OCCCC1CN(c2nc(N)n[nH]2)CCN1CCCc1ccc(Br)cc1` (stereo not shown) [Example 224, 3-(4-(3-amino-1H-1,2,4-triazol-5-yl)-1-(3-(4-bromophenyl)propyl)piperazin-2-yl)propylacetate]: 0.1 to 1 µM; for `Nc1n[nH]c(N2CCN(CCCc3ccc(Br)cc3)C(CCCO)C2)n1` (stereo not shown) [Example 225, 3-(4-(3-amino-1H-1,2,4-triazol-5-yl)-1-(3-(4-bromophenyl)propyl)piperazin-2-yl)propan-1-ol]: 1 to 10 µM; for `Nc1n[nH]c(N2CCN(CCCc3ccccc3)C(CCCO)C2)n1` (stereo not shown) [Example 226]: 10 to 100 µM.
For `CN(CCc1ccc(Cl)cc1)C1(CCO)CCN(c2nc(N)n[nH]2)CC1` [Example 228, 2-(1-(3-amino-1H-1,2,4-triazol-5-yl)-4-((4-chlorophenethyl)(methyl)amino)piperidin-4-yl)ethanol], the IC50 is 0.1 to 1 µM.
In the case of `CC(C)(O)CCC1CN(c2nc(N)n[nH]2)CCN1CCCc1ccc(Br)cc1` (stereo not shown) [Example 229, 4-(4-(3-amino-1H-1,2,4-triazol-5-yl)-1-(3-(4-bromophenyl)propyl)piperazin-2-yl)-2-methylbutan-2-ol], the IC50 lay in the range of 1 to 10 µM.
Take `CC1CN(c2nc(N)n[nH]2)CCC1N(C)CCc1ccc(Br)cc1` (stereo not shown) [Example 230, 1-(3-amino-1H-1,2,4-triazol-5-yl)-N-(4-bromophenethyl)-N,3-dimethylpiperidin-4-amine dihydrochloride]: the IC50 was in the range of 0.1 to 1 µM.
For `CCC(Cc1ccc(Cl)cc1)N(CC)C1CCN(c2nc(N)n[nH]2)CC1` (stereo not shown) [Example 232, 1-(3-amino-1H-1,2,4-triazol-5-yl)-N-(1-(4-chlorophenyl)butan-2-yl)-N-ethylpiperidin-4-amine dihydrochloride], the IC50 lay in the range of 0.1 to 1 µM.
The result for `Nc1n[nH]c(N2CCN(C(=O)CC(N)c3cccc(F)c3)CC2)n1` (stereo not shown) [Example 233, 3-amino-1-(4-(3-amino-1H-1,2,4-triazol-5-yl)piperazin-1-yl)-3-(3-fluorophenyl)propan-1-one] reads above 100 µM; that for `CC1(C(=O)NCc2ccc(Cl)cc2)CCN(c2nc(N)n[nH]2)CC1` [Example 235, 1-(3-amino-1H-1,2,4-triazol-5-yl)-N-(4-chlorobenzyl)-4-methylpiperidine-4-carboxamide], above 100 µM; that for `CC1(C(=O)NCc2ccc(Br)cc2)CCN(c2nc(N)n[nH]2)CC1` [Example 237, 1-(3-amino-1H-1,2,4-triazol-5-yl)-N-(4-bromobenzyl)-4-methylpiperidine-4-carboxamide], above 100 µM.
Take `CCN(C1CCN(c2nc(N)n[nH]2)CC1)S(=O)(=O)Cc1cccc(Cl)c1` [Example 238, N-(1-(3-amino-1H-1,2,4-triazol-5-yl)piperidin-4-yl)-1-(3-chlorophenyl)-N-ethylmethanesulfonamide]: the IC50 lay in the range of 0.1 to 1 µM.
The same measure for `CN(C)C(Cc1ccc(Cl)cc1Cl)C(=O)N1CCN(c2nc(N)n[nH]2)CC1` (stereo not shown) [Example 240, 1-(4-(3-amino-1H-1,2,4-triazol-5-yl)piperazin-1-yl)-3-(2,4-dichlorophenyl)-2-(dimethylamino)propan-1-one]: above 100 µM.
For `C[C@H](CN1CCN(c2nc(N)n[nH]2)CC1)Oc1ccc(Cl)cc1` [Example 241, (R)-5-(4-(2-(4-chlorophenoxy)propyl)piperazin-1-yl)-1H-1,2,4-triazol-3-amine dihydrochloride], the IC50 was above 100 µM.
For the compound `CN(C)C(CC(=O)N1CCN(c2nc(N)n[nH]2)CC1)c1ccccc1F` (stereo not shown) [Example 242, 1-(4-(3-amino-1H-1,2,4-triazol-5-yl)piperazin-1-yl)-3-(dimethylamino)-3-(2-fluorophenyl)propan-1-one dihydrochloride], the IC50 is above 100 µM.
In the case of `Nc1n[nH]c(N2CCC(CNC(=O)c3cc(Cl)cc(Cl)c3)CC2)n1` [Example 243, N-((1-(3-amino-1H-1,2,4-triazol-5-yl)piperidin-4-yl)methyl)-3,5-dichlorobenzamide], the IC50 was above 100 µM.
The same measure for `CC1CN(c2nc(N)n[nH]2)CCC1NS(=O)(=O)Cc1ccc(Br)cc1` (stereo not shown) [Example 244, N-(1-(3-amino-1H-1,2,4-triazol-5-yl)-3-methylpiperidin-4-yl)-1-(4-bromophenyl)methanesulfonamide]: 1 to 10 µM; for `CN(CCc1ccc(Cl)cc1)C1(CCCO)CCN(c2nc(N)n[nH]2)CC1` [Example 245, 3-(1-(3-amino-1H-1,2,4-triazol-5-yl)-4-((4-chlorophenethyl)(methyl)amino)piperidin-4-yl)propan-1-ol]: 1 to 10 µM.
